PMC4685510, “A Cell Biologist’s Field Guide to Aurora Kinase Inhibitors” (Frontiers in Oncology, 2015)

Experiments:
Test in all cases: biochemical
Assay type in all cases: biochemical
[1] = molecular target: 363 human kinases (including Aurora A/B/C) (Homo sapiens, UniProt Q9Y5S2); details: MRCKb/CDC42BPB; for remaining activity at 0.1 µM: 100 nM; for remaining activity at 0.1 µM / remaining activity at 0.5 µM: read-out: % Enzyme Activity (relative to DMSO controls)
Source text: (§1) However, the Aurora A/B selectivity ratios derived from our in vitro and in vivo data can be compared to prioritize inhibitors.

[2] = molecular target: 363 human kinases (including Aurora A/B/C) (Homo sapiens, UniProt Q13557); details: CAMK2d, [ATP] 30 µM; for remaining activity at 0.1 µM: 100 nM; for remaining activity at 0.1 µM / remaining activity at 0.5 µM: read-out: % Enzyme Activity (relative to DMSO controls)
Source text: as §1

[3] = molecular target: T1, 363 human kinases (including Aurora A/B/C) (Homo sapiens, UniProt Q8WXR4); details: MYO3b; for remaining activity at 0.1 µM: 100 nM; for remaining activity at 0.1 µM / remaining activity at 0.5 µM: read-out: % Enzyme Activity (relative to DMSO controls)
T1 sequence (Q8WXR4 1-1341): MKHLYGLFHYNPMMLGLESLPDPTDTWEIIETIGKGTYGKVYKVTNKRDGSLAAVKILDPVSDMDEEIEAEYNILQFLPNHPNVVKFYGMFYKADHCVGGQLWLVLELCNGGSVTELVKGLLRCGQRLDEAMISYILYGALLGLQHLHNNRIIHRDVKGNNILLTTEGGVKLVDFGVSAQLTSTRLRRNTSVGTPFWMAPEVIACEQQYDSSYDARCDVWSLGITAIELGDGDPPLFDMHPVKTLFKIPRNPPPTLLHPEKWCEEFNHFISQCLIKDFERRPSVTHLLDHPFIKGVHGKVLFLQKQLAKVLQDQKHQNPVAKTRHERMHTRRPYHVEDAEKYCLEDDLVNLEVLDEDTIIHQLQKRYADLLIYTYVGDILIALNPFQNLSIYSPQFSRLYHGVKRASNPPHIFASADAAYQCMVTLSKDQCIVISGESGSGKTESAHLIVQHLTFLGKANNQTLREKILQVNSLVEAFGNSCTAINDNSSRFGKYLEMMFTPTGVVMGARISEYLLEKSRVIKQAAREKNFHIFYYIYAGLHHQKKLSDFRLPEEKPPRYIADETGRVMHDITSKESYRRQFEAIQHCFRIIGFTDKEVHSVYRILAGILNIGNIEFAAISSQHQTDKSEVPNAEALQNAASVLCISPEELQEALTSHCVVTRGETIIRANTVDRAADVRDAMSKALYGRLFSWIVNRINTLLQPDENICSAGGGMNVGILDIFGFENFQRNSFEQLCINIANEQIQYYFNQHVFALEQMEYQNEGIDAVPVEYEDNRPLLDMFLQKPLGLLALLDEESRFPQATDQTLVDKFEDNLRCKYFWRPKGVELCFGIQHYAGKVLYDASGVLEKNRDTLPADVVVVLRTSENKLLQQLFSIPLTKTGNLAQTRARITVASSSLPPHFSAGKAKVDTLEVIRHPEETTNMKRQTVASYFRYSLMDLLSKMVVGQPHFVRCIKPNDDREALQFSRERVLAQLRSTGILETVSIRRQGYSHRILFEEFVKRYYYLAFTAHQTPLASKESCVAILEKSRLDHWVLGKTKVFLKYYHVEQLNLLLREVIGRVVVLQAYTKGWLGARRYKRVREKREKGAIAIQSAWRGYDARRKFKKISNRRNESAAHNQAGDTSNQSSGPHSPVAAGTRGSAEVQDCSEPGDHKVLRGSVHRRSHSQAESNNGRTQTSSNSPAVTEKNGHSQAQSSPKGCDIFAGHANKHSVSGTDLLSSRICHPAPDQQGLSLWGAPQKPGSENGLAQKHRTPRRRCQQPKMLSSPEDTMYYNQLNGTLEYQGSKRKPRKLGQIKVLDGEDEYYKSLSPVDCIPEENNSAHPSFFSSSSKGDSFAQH
Source text: as §1

[4] = molecular target: T2, 363 human kinases (including Aurora A/B/C) (Homo sapiens, UniProt P51956); details: NEK3; for remaining activity at 0.1 µM: 100 nM; for remaining activity at 0.1 µM / remaining activity at 0.5 µM: read-out: % Enzyme Activity (relative to DMSO controls)
T2 sequence (P51956 1-506): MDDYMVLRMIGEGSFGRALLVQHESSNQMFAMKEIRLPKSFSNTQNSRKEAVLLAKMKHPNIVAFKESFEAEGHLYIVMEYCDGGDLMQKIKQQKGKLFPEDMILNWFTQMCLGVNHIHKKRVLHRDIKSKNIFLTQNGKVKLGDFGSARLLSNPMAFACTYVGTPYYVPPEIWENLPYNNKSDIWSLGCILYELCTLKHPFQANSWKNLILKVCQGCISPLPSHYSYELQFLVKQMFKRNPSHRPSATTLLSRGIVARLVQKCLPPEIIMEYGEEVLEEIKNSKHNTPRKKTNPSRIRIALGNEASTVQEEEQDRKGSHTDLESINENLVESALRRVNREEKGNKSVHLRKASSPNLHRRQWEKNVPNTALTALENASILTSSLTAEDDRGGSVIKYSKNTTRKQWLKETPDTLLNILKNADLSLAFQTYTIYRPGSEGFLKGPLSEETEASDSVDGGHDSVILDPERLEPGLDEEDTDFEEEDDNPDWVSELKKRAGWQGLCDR
Source text: as §1

[5] = molecular target: 363 human kinases (including Aurora A/B/C) (Homo sapiens, UniProt P54756); details: EPHA5, [ATP] 30 µM; for remaining activity at 0.1 µM: 100 nM; for remaining activity at 0.1 µM / remaining activity at 0.5 µM: read-out: % Enzyme Activity (relative to DMSO controls)
Source text: as §1

[6] = molecular target: 363 human kinases (including Aurora A/B/C) (Homo sapiens, UniProt Q8N5S9); details: CAMKK1, [ATP] 5 µM; for remaining activity at 0.1 µM: 100 nM; for remaining activity at 0.1 µM / remaining activity at 0.5 µM: read-out: % Enzyme Activity (relative to DMSO controls)
Source text: as §1

[7] = molecular target: 363 human kinases (including Aurora A/B/C) (Homo sapiens, UniProt Q02779); details: MLK2/MAP3K10; for remaining activity at 0.1 µM: 100 nM; for remaining activity at 0.1 µM / remaining activity at 0.5 µM: read-out: % Enzyme Activity (relative to DMSO controls)
Sequence of 363 human kinases (including Aurora A/B/C) (Homo sapiens, UniProt Q02779) (Q02779 whole entry): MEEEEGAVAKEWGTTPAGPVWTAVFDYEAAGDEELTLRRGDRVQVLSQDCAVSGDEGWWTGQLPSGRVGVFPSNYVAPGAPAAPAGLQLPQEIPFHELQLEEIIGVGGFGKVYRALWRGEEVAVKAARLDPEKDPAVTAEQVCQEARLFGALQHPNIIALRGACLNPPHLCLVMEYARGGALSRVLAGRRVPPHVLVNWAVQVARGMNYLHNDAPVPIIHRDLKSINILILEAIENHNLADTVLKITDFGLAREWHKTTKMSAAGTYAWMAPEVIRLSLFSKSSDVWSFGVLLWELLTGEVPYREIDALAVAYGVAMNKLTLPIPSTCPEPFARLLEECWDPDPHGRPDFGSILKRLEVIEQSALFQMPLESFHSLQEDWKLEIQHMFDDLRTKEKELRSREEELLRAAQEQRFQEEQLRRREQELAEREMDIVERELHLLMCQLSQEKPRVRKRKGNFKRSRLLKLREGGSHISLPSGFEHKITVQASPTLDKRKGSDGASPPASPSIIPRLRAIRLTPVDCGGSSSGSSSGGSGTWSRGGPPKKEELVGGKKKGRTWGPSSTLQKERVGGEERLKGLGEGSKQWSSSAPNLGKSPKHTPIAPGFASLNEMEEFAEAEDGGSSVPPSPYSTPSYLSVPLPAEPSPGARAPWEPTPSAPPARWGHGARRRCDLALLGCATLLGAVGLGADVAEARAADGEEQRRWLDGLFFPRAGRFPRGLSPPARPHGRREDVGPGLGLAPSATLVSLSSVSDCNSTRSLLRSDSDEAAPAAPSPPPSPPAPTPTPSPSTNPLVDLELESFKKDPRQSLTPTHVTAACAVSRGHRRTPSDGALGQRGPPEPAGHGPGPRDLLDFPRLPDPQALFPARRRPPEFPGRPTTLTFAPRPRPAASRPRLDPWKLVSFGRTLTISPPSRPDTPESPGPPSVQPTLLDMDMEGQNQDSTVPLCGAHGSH
Source text: as §1

Sequence of 363 human kinases (including Aurora A/B/C) (Homo sapiens, UniProt Q13557) (Q13557 whole entry): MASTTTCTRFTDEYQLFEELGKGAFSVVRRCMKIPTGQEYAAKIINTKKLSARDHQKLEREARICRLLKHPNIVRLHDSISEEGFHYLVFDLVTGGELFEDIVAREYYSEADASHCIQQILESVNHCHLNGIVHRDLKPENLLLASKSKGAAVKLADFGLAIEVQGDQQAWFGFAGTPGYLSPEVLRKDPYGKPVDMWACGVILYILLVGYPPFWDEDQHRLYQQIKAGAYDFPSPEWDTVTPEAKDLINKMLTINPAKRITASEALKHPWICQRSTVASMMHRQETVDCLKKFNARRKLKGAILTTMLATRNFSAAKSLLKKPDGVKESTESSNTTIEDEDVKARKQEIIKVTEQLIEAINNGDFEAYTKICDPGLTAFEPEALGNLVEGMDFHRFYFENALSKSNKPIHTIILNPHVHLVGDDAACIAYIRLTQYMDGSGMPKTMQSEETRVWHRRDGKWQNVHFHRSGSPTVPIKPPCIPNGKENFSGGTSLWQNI
Sequence of 363 human kinases (including Aurora A/B/C) (Homo sapiens, UniProt P54756) (P54756 25-1037): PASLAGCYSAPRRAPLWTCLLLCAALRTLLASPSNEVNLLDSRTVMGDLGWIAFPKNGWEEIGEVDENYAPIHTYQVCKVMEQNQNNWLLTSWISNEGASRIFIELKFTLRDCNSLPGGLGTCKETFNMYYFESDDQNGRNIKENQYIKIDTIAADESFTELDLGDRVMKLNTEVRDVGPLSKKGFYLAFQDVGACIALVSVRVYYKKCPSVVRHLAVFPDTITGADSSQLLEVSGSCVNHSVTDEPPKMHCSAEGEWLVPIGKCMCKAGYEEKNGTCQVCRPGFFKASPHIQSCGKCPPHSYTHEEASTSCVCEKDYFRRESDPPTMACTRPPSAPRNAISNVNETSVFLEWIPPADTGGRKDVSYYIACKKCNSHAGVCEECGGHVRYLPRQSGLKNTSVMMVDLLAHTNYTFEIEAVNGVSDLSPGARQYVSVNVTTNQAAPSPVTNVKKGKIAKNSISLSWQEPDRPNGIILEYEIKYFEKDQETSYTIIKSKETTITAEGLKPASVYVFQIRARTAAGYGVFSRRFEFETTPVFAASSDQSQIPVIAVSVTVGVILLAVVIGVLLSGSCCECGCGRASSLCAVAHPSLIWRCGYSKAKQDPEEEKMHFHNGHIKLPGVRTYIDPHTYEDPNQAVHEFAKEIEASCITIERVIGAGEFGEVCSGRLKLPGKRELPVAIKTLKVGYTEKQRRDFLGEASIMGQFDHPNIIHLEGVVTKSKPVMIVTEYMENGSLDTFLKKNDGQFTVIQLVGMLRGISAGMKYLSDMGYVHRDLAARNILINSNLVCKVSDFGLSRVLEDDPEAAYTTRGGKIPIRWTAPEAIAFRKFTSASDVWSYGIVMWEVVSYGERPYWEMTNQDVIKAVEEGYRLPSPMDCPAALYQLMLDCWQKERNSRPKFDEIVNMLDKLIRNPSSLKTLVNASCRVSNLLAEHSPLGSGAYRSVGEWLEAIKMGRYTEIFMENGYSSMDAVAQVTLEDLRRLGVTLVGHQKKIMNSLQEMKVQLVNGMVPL
Sequence of 363 human kinases (including Aurora A/B/C) (Homo sapiens, UniProt Q8N5S9) (Q8N5S9 whole entry): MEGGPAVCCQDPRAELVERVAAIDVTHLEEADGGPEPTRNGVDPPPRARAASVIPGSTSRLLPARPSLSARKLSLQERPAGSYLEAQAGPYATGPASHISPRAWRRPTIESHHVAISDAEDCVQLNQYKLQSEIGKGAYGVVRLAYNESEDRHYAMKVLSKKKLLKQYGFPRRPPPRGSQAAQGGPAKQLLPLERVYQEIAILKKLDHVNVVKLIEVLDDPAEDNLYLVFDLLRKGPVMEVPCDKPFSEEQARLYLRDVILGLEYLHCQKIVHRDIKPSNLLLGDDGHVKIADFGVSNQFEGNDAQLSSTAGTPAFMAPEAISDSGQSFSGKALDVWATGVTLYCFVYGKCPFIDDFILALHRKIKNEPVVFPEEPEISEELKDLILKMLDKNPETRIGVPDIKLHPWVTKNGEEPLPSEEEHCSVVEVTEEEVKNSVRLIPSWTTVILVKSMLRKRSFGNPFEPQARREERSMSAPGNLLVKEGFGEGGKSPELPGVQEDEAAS
Sequence of 363 human kinases (including Aurora A/B/C) (Homo sapiens, UniProt Q9Y5S2) (Q9Y5S2 whole entry): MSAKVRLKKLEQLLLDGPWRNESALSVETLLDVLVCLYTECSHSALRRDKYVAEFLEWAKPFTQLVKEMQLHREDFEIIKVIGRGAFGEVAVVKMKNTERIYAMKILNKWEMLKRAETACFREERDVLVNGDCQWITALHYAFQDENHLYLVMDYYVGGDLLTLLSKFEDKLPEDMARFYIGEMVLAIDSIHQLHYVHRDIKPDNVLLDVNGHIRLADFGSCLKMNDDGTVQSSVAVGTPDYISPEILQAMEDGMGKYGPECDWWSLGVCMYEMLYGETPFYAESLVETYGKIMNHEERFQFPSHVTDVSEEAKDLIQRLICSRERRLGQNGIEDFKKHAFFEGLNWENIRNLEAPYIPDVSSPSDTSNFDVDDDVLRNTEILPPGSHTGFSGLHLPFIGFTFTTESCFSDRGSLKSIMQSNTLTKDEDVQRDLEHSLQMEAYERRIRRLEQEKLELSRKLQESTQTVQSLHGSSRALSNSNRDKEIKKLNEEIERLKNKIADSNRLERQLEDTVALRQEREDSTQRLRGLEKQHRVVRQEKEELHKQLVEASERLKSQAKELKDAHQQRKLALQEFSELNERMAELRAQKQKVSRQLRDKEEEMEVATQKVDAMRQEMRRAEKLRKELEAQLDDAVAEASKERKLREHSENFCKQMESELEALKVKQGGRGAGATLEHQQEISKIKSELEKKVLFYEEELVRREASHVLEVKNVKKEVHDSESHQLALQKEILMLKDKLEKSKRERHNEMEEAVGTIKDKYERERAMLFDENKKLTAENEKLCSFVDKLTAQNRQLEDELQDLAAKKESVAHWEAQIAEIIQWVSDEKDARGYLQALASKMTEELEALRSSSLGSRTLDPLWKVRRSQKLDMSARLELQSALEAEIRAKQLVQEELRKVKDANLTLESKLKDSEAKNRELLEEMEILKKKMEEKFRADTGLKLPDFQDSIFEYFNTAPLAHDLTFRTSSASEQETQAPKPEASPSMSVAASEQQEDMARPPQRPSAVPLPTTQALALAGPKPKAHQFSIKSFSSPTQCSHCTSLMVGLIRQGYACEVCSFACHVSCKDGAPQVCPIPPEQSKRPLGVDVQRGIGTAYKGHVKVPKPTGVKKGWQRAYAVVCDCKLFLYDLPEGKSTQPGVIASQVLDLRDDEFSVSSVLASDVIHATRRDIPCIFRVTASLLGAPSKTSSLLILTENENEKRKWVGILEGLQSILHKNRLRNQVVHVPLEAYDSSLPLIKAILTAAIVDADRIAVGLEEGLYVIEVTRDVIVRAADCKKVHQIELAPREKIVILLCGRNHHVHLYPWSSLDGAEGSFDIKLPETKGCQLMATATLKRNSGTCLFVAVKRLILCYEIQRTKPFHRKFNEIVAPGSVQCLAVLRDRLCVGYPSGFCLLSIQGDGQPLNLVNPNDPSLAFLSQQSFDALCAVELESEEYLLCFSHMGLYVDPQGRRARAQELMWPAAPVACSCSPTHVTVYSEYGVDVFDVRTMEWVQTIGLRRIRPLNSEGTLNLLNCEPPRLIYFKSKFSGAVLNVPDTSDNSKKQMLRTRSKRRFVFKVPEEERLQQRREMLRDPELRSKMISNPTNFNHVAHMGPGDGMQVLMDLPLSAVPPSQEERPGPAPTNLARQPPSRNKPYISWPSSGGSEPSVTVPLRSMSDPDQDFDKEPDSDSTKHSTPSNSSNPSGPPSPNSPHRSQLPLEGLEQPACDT

| Compound | remaining activity at 0.1 µM [1] | remaining activity at 0.1 µM [2] | remaining activity at 0.1 µM [3] | remaining activity at 0.1 µM [4] | remaining activity at 0.1 µM [5] | remaining activity at 0.1 µM [6] | remaining activity at 0.1 µM [7] | remaining activity at 0.5 µM ([1]; 500 nM) | remaining activity at 0.5 µM ([2]; 500 nM) | remaining activity at 0.5 µM ([3]; 500 nM) | remaining activity at 0.5 µM ([4]; 500 nM) | remaining activity at 0.5 µM ([5]; 500 nM) | remaining activity at 0.5 µM ([6]; 500 nM) | remaining activity at 0.5 µM ([7]; 500 nM) | also measured |
| --- | --- | --- | --- | --- | --- | --- | --- | --- | --- | --- | --- | --- | --- | --- | --- |
| CCn1cc(-c2ccnc3[nH]c(-c4cccc(CN(C)C)c4)cc23)c(-c2ccc(NC(=O)N(C)C)cc2)n1 [GSK1070916] | 103% | 94.6% | 102% | 97.7% | 101% | 110% | 75.6% |  |  |  |  |  |  |  |  |
| O=C(c1cccc(Cl)c1F)N1CCN(Cc2cccc(Nc3nccs3)n2)CC1 [MK-8745] |  |  |  |  |  |  |  | 102% | 98.5% | 107% | 100% | 84.2% | 106% | 79.9% | % Enzyme Activity (relative to DMSO controls) ([1]; 500 nM): 102.30%; % Enzyme Activity (relative to DMSO controls) ([2]; 500 nM): 97.95%; % Enzyme Activity (relative to DMSO controls) ([3]; 500 nM): 106.69%; % Enzyme Activity (relative to DMSO controls) ([4]; 500 nM): 99.14%; % Enzyme Activity (relative to DMSO controls) ([5]; 500 nM): 84.08%; % Enzyme Activity (relative to DMSO controls) ([6]; 500 nM): 105.68%; % Enzyme Activity (relative to DMSO controls) ([7]; 500 nM): 79.50% |
| O=C(O)[C@]1(Cc2cccc(Nc3nccs3)n2)CC[C@@H](Oc2cccc(Cl)c2F)CC1 [MK-5108] | 90% | 101% | 99.8% | 99.3% | 48.6% | 108% | 23.5% | 104% | 98.6% | 100% | 101% | 24.4% | 104% | 5.55% |  |
